Converted amounts (≈) assume the structure as drawn. Where two headings read alike, the source gives them in different places.
Columns and labels:
Test in all cases: microbe, parasite or virus in culture
[1] = test system: A. baumannii clinical isolates
Summary of the method: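 MIC90 from CLSI broth microdilution (M07-A9) in two clinical-isolate panels. US panel (331 isolates, 2010-2012): AA139 diluted in 0.01% acetic acid/0.1% BSA. Worldwide panel (445 isolates, 2011-2013, four regions): CAMHB, with 0.002% Tween 80 added for AA139 and polymyxin B.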

S. enterica Typhi = conditions: Salmonella enterica, ATCC14028 / TYPHI, read-out: BMD MIC
Summary of the method: (§1)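 MICs were scored by eye after 18-20 h static incubation at 37 °C, with bacteria at 5 × 10^5 CFU mL^−1 in MHB. Peptides were serially diluted 2-fold over 12 points, top 128 or 64 μg mL^−1. CAMHB (CLSI) and 1% agarose-MHB variants were also run, at least six replicates.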

A. baumannii = conditions: Acinetobacter baumannii, mode of 6 replicates
Summary of the method: as §1

E. coli = conditions: Escherichia coli
Summary of the method: as §1

S. aureus = conditions: Staphylococcus aureus, ATCC25923 / MSSA, read-out: BMD MIC
Summary of the method: as §1

K. pneumoniae = conditions: Klebsiella pneumoniae, mode of 6 replicates
Summary of the method: as §1

P. aeruginosa = conditions: Pseudomonas aeruginosa, mode of 6 replicates
Summary of the method: as §1

[2] = Worldwide isolates 2011-2013, A. baumannii n = 108

With CNC(C)C1CCC(N)C(OC2C(N)CC(N)C(OC3OCC(C)(O)C(NC)C3O)C2O)O1 (stereo not shown) [Gentamicin, gentamicin, reference compound] the MIC90 ([1]; Acinetobacter baumannii) was greater than 32 µg/mL, the MIC90 ([1]; US isolates 2010–2012, A. baumannii MDR, n = 19) was greater than 32 µg/mL and the MIC90 ([1]; US isolates 2010–2012, A. baumannii XDR, n = 31) was greater than 32 µg/mL. The MIC50 [1, 2] was greater than 32 µg/mL, the MIC90 [1, 2] was greater than 32 µg/mL and the MIC (S. enterica Typhi) was 1 µg/mL (≈ 2.09 µM). It also gave an MIC (A. baumannii; ATCC19636, read-out: BMD MIC, A. baumannii ATCC 19636 type strain, CAMHB) of 16 µg/mL (≈ 33.5 µM), an MIC (A. baumannii; ATCC19636, read-out: BMD MIC, A. baumannii ATCC 19636 type strain, MHB) of 32 µg/mL (≈ 67 µM) and an MIC (A. baumannii; read-out: BMD MIC, A. baumannii Greece CI, XDR, PmxR, MHB) greater than 32 µg/mL. It also gave an MIC (E. coli; ATCC25922, read-out: BMD MIC, E. coli ATCC 25922 FDA control strain, CAMHB, mode of 6 replicates) of no more than 0.25 µg/mL, an MIC (E. coli; ATCC25922, read-out: BMD MIC, E. coli ATCC 25922 FDA control strain, MHB, mode of 6 independent biological replicates) of 1 µg/mL (≈ 2.09 µM) and an MIC (E. coli; ATCC700926|MG1655, read-out: BMD MIC, E. coli ATCC 700926 K12 (MG1655), CAMHB, mode of 6 replicates) of 0.5 µg/mL (≈ 1.05 µM). For the same compound, the MIC (E. coli; ATCC700928, read-out: BMD MIC, E. coli ATCC 700928 CFT073 UPEC, CAMHB, mode of 6 replicates) was 0.5 µg/mL (≈ 1.05 µM), the MIC (E. coli; read-out: BMD MIC, E. coli CI 12-6-83 Hong Kong, mcr-1 pos, ESBL, CAMHB, mode of 6 replicates) was 0.5 µg/mL (≈ 1.05 µM) and the MIC (S. aureus) was 4 µg/mL (≈ 8.38 µM). The MIC (K. pneumoniae; ATCC13883, read-out: BMD MIC, K. pneumoniae ATCC 13883 type strain (polymyxin/colistin heteroresistant), MHB) was 0.5 µg/mL (≈ 1.05 µM), the MIC (K. pneumoniae; ATCC700603, read-out: BMD MIC, K. pneumoniae ATCC 700603 (K6), MDR, OXA-2/SHV-18, CAMHB) was 4 µg/mL (≈ 8.38 µM) and the MIC (K. pneumoniae; ATCC700603, read-out: BMD MIC, K. pneumoniae ATCC 700603 (K6), MDR, OXA-2/SHV-18, MHB) was 4 µg/mL (≈ 8.38 µM). The MIC (K. pneumoniae; BAA2146, read-out: BMD MIC, K. pneumoniae BAA-2146, MDR, ESBL, NDM-1 pos, MHB) was greater than 32 µg/mL, the MIC (P. aeruginosa; ATCC27853, read-out: BMD MIC, P. aeruginosa ATCC 27853 control strain, CAMHB) was 1 µg/mL (≈ 2.09 µM) and the MIC (P. aeruginosa; ATCC27853, read-out: BMD MIC, P. aeruginosa ATCC 27853 control strain, MHB) was 1 µg/mL (≈ 2.09 µM). It also gave an MIC (P. aeruginosa; read-out: BMD MIC, P. aeruginosa FADDI-070, MDR, PmxR, MHB/CAMHB) of 32 µg/mL (≈ 67 µM).
